Where two headings read alike, the source gives them in different places.
Experiment: Multiple oral dosing for 14 days, pharmacokinetics in HCV infected subjects (Example 3)
Format: in vivo, human
Settings: for DN Cmax / DN-AUC(0-12 hr): dose-normalized (to 100 mg); for Cmin: at 0 hour (trough) predose; for Cmax / AUC(0-t) / Tmax / Vd/F / half-life: human, plasma, oral; for half-life: read-out: t½ (converted)
Protocol: Multiple escalating doses of compound of Formula Ia were administered for 14 days to HCV positive subjects who were genotype 1 Interferon-a (with or without ribavirin) non responders. In a randomized, placebo controlled, third party blind study, multiple doses of 100 mg BID, 200 mg BID, 400 mg BID, 400 mg TID, and 600 mg TID of compound of Formula Ia or placebo in a 3:1 ratio with or without food were evaluated.
Upon acceptance into the study, within each cohort, subjects were randomized in a 3:1 ratio (active to placebo) and received one of the following dosing groups: • Group 1: Compound of Formula Ia 100 mg (2×50 mg) BID or matching placebo×14 days without food. • Group 2: Compound of Formula Ia 200 mg (2×100 mg) BID or matching placebo×14 days without food. • Group 3: Compound of Formula Ia 400 mg (4×100 mg) BID or matching placebo×14 days without food. • Group4: Compound of Formula Ia 400 mg (4×100 mg) TID or matching placebo×14 days without food. • Group 5: Compound of Formula Ia 400 mg (4×100 mg) BID or matching placebo×14 days with food. • Group 6: Compound of Formula Ia 600 mg (6×100 mg) BID or matching placebo×14 days without food. • Group 7: Compound of Formula Ia 600 mg (6×100 mg) BID or matching placebo×14 days with food. • Group 8: compound of Formula Ia 600 mg (6×100 mg) TID or matching placebo×14 days without food. • Group 9: compound of Formula Ia intermediate dose or matching placebo×14 days with or without food.
Each subject was randomized to one treatment group. On Day 14, only the AM dose was administered.
For Cohorts Without Food: Treatments were administered on the morning (approximately 8 AM) of Days 1 and 14 following a 10 hour fast. Fasting continued until 4 hours postdose. Water was allowed during the fasting period. On the nonpharmacokinetic collection days (Days 2 through 13) breakfast and dinner were consumed either 90 minutes before or 90 minutes after each dose. All treatments were administered with approximately 240 mL of noncarbonated water. All doses on Days 1-14 were administered at approximately the same time each day, for cohorts with BID dosing study treatment were administered approximately 12 hours apart at 8 AM and 8 PM, and for cohorts with TID dosing study treatment were administered approximately 8 hours apart at 8 AM, 4 PM, and 12 Midnight.
For Cohorts With TID Dosing: All volunteers were dosed three times daily at approximately the same time each day; the doses were administered approximately 8 hours apart at 8 AM, 4 PM, and 12 Midnight.
For Cohorts With BID Dosing: All volunteers were dosed twice a day at approximately the same time each day. The doses were administered approximately 12 hours apart at 8 AM and 8 PM.
On Day 14, all subjects received only their assigned AM dose. During the dosing the capsule(s) were swallowed whole, not chewed or crushed. After dosing, the oral cavity was inspected to assure the volunteer had completely swallowed the capsule(s). […] Water was permitted throughout the fasting and nonfasting periods.
The plasma concentration data of compound of Formula Ia was used to estimate the following pharmacokinetic parameters: • Cmax—Maximum observed plasma concentration; • Tmax—Time of observed maximum plasma concentration; • AUC(0-t)—Area under the plasma concentration-time curve over the dosing interval • AUC (tf)—Area under the plasma concentration-time curve to the final quantifiable sample • CL/F—Apparent total body clearance. • t½—Terminal phase half life • Vd/F—Apparent volume of distribution • R—Accumulation ratio
All plasma samples were assayed for compound of Formula Ia using a validated liquid chromatographic tandem mass spectrometric (LC-MS/MS) method.

[1] = 100 mg, Day 14, 100 mg BID, mean
[2] = 200 mg, Day 14, 200 mg BID, mean
[3] = 400 mg, Day 14, 400 mg BID, mean
[4] = 400 mg, Day 14, 400 mg TID, mean

Structure (SMILES): CC(C)(C)NC(=O)N[C@H](C(=O)N1C[C@H]2[C@@H]([C@H]1C(=O)NC(CC1CCC1)C(=O)C(N)=O)C2(C)C)C(C)(C)C (mixture of isomers) [Formula Ia, (1 R, 5S)-N-[3-Amino-1-(Cyclobutylmethyl)-2,3-Dioxopropyl]-3-[2(S)-[[[(1,1-Dimethylethyl)Amino]Carbonyl]Amino]-3,3-Dimethyl-1-Oxobutyl]-6,6-Dimethyl-3-Azabicyclo[3.1.0]Hexan-2(S)-Carboxamide]
- mean accumulation ratio (BID dosing): 1
- DN Cmax (Day 1, 100 mg BID, mean): 131 ng/mL
- DN-AUC(0-12 hr) (Day 1, 100 mg BID, mean): 417 ng·h/mL
- DN Cmax (Day 1, 200 mg BID, mean): 162 ng/mL
- DN-AUC(0-12 hr) (Day 1, 200 mg BID, mean): 492 ng·h/mL
- DN Cmax (Day 1, 400 mg BID, mean): 116 ng/mL
- DN-AUC(0-12 hr) (Day 1, 400 mg BID, mean): 421 ng·h/mL
- Cmin (Day 14, 100 mg BID, mean): 12.7 ng/mL
- DN Cmax (Day 14, 100 mg BID, mean): 193 ng/mL
- DN-AUC(0-12 hr) (Day 14, 100 mg BID, mean): 700 ng·h/mL
- CL/F (Day 14, 100 mg BID, mean): 159 L/h
- R (accumulation ratio) (Day 14, 100 mg BID, mean): 2.40
- t½ (Day 14, 100 mg BID, mean): 8.58 h
- Cmin (Day 14, 200 mg BID, mean): 46.3 ng/mL
- DN Cmax (Day 14, 200 mg BID, mean): 212 ng/mL
- DN-AUC(0-12 hr) (Day 14, 200 mg BID, mean): 693 ng·h/mL
- CL/F (Day 14, 200 mg BID, mean): 155 L/h
- R (accumulation ratio) (Day 14, 200 mg BID, mean): 1.45
- Cmin (Day 14, 400 mg BID, mean): 48.8 ng/mL
- DN Cmax (Day 14, 400 mg BID, mean): 115 ng/mL
- DN-AUC(0-12 hr) (Day 14, 400 mg BID, mean): 411 ng·h/mL
- CL/F (Day 14, 400 mg BID, mean): 269 L/h
- R (accumulation ratio) (Day 14, 400 mg BID, mean): 1.00
- Cmin (Day 14, 400 mg TID, mean): 183 ng/mL
- DN Cmax (Day 14, 400 mg TID, mean): 138 ng/mL
- CL/F (Day 14, 400 mg TID, mean): 206 L/h
- R (accumulation ratio) (Day 14, 400 mg TID, mean): 1.26
- Cmax (100 mg, Day 1, 100 mg BID, mean, n = 12): 131 ng/mL
- AUC(0-t) (100 mg, Day 1, 100 mg BID, mean, read-out: AUC(0-12 hr)): 417 ng·h/mL
- Tmax (100 mg, Day 1, 100 mg BID, median, read-out: Tmax): 1.5 h
- Cmax [1]: 193 ng/mL
- Vd/F [1]: 1860 L
- AUC(0-t) (100 mg, Day 14, 100 mg BID, mean, read-out: AUC(0-12 hr)): 700 ng·h/mL
- half-life [1]: 510 min
- Tmax (100 mg, Day 14, 100 mg BID, median, read-out: Tmax): 1.25 h
- Cmax (200 mg, Day 1, 200 mg BID, mean, n = 12): 324 ng/mL
- AUC(0-t) (200 mg, Day 1, 200 mg BID, mean, read-out: AUC(0-12 hr)): 983 ng·h/mL
- Tmax (200 mg, Day 1, 200 mg BID, median, read-out: Tmax): 1 h
- Cmax [2]: 424 ng/mL
- Vd/F [2]: 2910 L
- AUC(0-t) (200 mg, Day 14, 200 mg BID, mean, read-out: AUC(0-12 hr)): 1390 ng·h/mL
- half-life [2]: 804 min
- Tmax (200 mg, Day 14, 200 mg BID, median, read-out: Tmax): 1.25 h
- Cmax (400 mg, Day 1, 400 mg BID, mean, n = 11): 463 ng/mL
- AUC(0-t) (400 mg, Day 1, 400 mg BID, mean, read-out: AUC(0-12 hr)): 1680 ng·h/mL
- Tmax (400 mg, Day 1, 400 mg BID, median, read-out: Tmax): 1.5 h
- Cmax (400 mg, Day 1, 400 mg TID, mean, n = 10): 504 ng/mL
- AUC(0-t) (400 mg, Day 1, 400 mg TID, mean, read-out: AUC(0-8 hr)): 1650 ng·h/mL
- Tmax (400 mg, Day 1, 400 mg TID, median, read-out: Tmax): 1.5 h
- Cmax [3]: 459 ng/mL
- Vd/F [3]: 5030 L
- AUC(0-t) (400 mg, Day 14, 400 mg BID, mean, read-out: AUC(0-12 hr)): 1640 ng·h/mL
- half-life [3]: 744 min
- Tmax (400 mg, Day 14, 400 mg BID, median, read-out: Tmax): 1 h
- Cmax [4]: ~550 ng/mL
- Vd/F [4]: ~5000 L
- AUC(0-t) (400 mg, Day 14, 400 mg TID, mean, read-out: AUC(0-8 hr)): 1990 ng·h/mL
- half-life [4]: 954 min
- Tmax (400 mg, Day 14, 400 mg TID, median, read-out: Tmax): 1.5 h
- Tmax (across dosages (100 mg BID to 400 mg TID), read-out: Mean Tmax): 1 to 1.5 h
- Time at which steady-state trough levels were reached (multiple dosing): ~11 days
